Laboratory results reported in article PMC10150354, “Linearization of the Brevicidine and Laterocidine Lipopeptides Yields Analogues That Retain Full Antibacterial Activity” (Journal of Medicinal Chemistry, 2023).
≈ marks a conversion by molar mass, not a printed value. Where a SMILES comes first, the peptide text is derived from it. Bridges are numbered along the chain shown (N, C = ends). [ ]: non-standard residue; d: D form. The star is where a group is joined. ξ: configuration not given here. Octanoyl(7-Me) = CC(C)CCCCCC(=O)*; Hexanoyl(4ξ-Me) = CCC(C)CCC(=O)*; dOrn = NCCC[C@@H](N)C(=O)O; Orn = NCCC[C@H](N)C(=O)O

What was measured:
E. coli (MCR-1) = format: cell-based, Escherichia coli; conditions: microbroth dilution per CLSI, MHB, 18 h at 37 °C, visual inspection, three technical replicates, E. coli 25922 carrying mcr-1
Outline: (§1)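 CLSI broth microdilution in MHB, polypropylene plates; log-phase bacteria (OD600 ~0.5, grown in TSB, with kanamycin for the E. coli ATCC 25922 MCR-1 strain) added at 2 × 10^5 CFU/mL. Read visually after 18 h at 37 °C with shaking; MIC = lowest concentration preventing visible growth, three technical replicates.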

E. coli ATCC 25922 = format: cell-based, Escherichia coli; conditions: for Antibacterial activity (MIC) E. coli ATCC 25922: microbroth dilution per CLSI, MHB, 18 h at 37 °C, visual inspection, three technical replicates
Outline: as §1

K. pneumoniae ATCC 13883 = format: cell-based, Klebsiella pneumoniae; conditions: microbroth dilution per CLSI, MHB, 18 h at 37 °C, visual inspection, three technical replicates
Outline: as §1

A. baumannii ATCC 17961 = format: cell-based, Acinetobacter baumannii; conditions: microbroth dilution per CLSI, MHB, 18 h at 37 °C, visual inspection, three technical replicates
Outline: as §1

P. aeruginosa PAO1 = format: cell-based, Pseudomonas aeruginosa; conditions: microbroth dilution per CLSI, MHB, 18 h at 37 °C, visual inspection, three technical replicates
Outline: as §1

S. aureus USA300 = format: cell-based, Staphylococcus aureus; conditions: microbroth dilution per CLSI, MHB, 18 h at 37 °C, visual inspection, three technical replicates
Outline: as §1

Structure (SMILES)	Antibacterial activity (MIC) E. coli (MCR-1) (E. coli (MCR-1))	Antibacterial activity (MIC) E. coli ATCC 25922 (E. coli ATCC 25922)	Antibacterial activity (MIC) K. pneumoniae ATCC 13883 (K. pneumoniae ATCC 13883)	Antibacterial activity (MIC) A. baumannii ATCC 17961 (A. baumannii ATCC 17961)	Antibacterial activity (MIC) P. aeruginosa PAO1 (P. aeruginosa PAO1)	Antibacterial activity (MIC) S. aureus USA300 (S. aureus USA300)	MIC (µg/mL) against E. coli (ATCC 25922) (E. coli ATCC 25922; (Supplement 2))
CC[C@H](C)[C@@H]1NC(=O)[C@@H](NC(=O)[C@H](Cc2c[nH]c3ccccc23)NC(=O)[C@@H](CCCN)NC(=O)CNC(=O)[C@H](CCCN)NC(=O)[C@@H](CCCN)NC(=O)[C@@H](Cc2c[nH]c3ccccc23)NC(=O)[C@@H](Cc2ccc(O)cc2)NC(=O)[C@@H](CO)NC(=O)CCCCCC(C)C)[C@@H](C)OC(=O)CNC(=O)CNC(=O)[C@H](CC(N)=O)NC1=O [Lat (2), laterocidine] ({Octanoyl(7-Me)}-[dS][dY][dW][dOrn][Orn]G[dOrn]WTINGG; ester 9-C)	2 µg/mL	2 µg/mL	2 to 4 µg/mL	2 µg/mL	4 µg/mL	>32 µg/mL	
CC[C@H](C)[C@H](NC(=O)[C@@H](NC(=O)[C@H](Cc1c[nH]c2ccccc12)NC(=O)[C@@H](CCCN)NC(=O)CNC(=O)[C@H](CCCN)NC(=O)[C@@H](CCCN)NC(=O)[C@@H](Cc1c[nH]c2ccccc12)NC(=O)[C@@H](Cc1ccc(O)cc1)NC(=O)[C@@H](CO)NC(=O)CCCCCC(C)C)[C@@H](C)O)C(=O)N[C@@H](CC(N)=O)C(=O)NCC(N)=O [Δ13LL-NH2 (8)] ({Octanoyl(7-Me)}-[dS][dY][dW][dOrn][Orn]G[dOrn]WTING-NH2)	8 µg/mL	8 µg/mL	4 to 8 µg/mL	4 µg/mL	4 µg/mL	>32 µg/mL	
CCC(C)CCC(=O)N[C@H](CC(N)=O)C(=O)N[C@H](Cc1ccc(O)cc1)C(=O)N[C@H](Cc1c[nH]c2ccccc12)C(=O)N[C@H](CCCN)C(=O)N[C@@H](CCCN)C(=O)NCC(=O)N[C@H](CCCN)C(=O)N[C@@H](Cc1c[nH]c2ccccc12)C(=O)N[C@H](C(N)=O)[C@@H](C)O (stereo partly shown) [Δ10–12LB-NH2 (13)] ({Hexanoyl(4ξ-Me)}-[dN][dY][dW][dOrn][Orn]G[dOrn]WT-NH2)	>32 µg/mL	>32 µg/mL	>32 µg/mL	>32 µg/mL	>32 µg/mL	>32 µg/mL	
CCC(C)CCC(=O)N[C@H](CC(N)=O)C(=O)N[C@H](Cc1ccc(O)cc1)C(=O)N[C@H](Cc1c[nH]c2ccccc12)C(=O)N[C@H](CCCN)C(=O)N[C@@H](CCCN)C(=O)NCC(=O)N[C@H](CCCN)C(=O)N[C@@H](Cc1c[nH]c2ccccc12)C(=O)N[C@@H](Cc1c[nH]c2ccccc12)C(=O)N[C@H](C(=O)NCC(N)=O)[C@@H](C)CC (stereo partly shown) [Δ12LB (Trp9)-NH2 (56)] ({Hexanoyl(4ξ-Me)}-[dN][dY][dW][dOrn][Orn]G[dOrn]WWIG-NH2)	4 µg/mL	4 µg/mL	8 µg/mL	4 µg/mL	8 µg/mL	16 µg/mL	4 µg/mL (≈ 2.61 µM)
CCC(C)CCC(=O)N[C@H](CC(N)=O)C(=O)N[C@H](Cc1ccc(O)cc1)C(=O)N[C@H](Cc1c[nH]c2ccccc12)C(=O)N[C@H](C)C(=O)N[C@@H](CCCN)C(=O)NCC(=O)N[C@H](CCCN)C(=O)N[C@@H](Cc1c[nH]c2ccccc12)C(=O)N[C@H](C(=O)N[C@H](C(=O)NCC(=O)N[C@@H](CO)C(N)=O)[C@@H](C)CC)[C@@H](C)O (stereo partly drawn) [LB(D-Ala4)-NH2 (20)] ({Hexanoyl(4ξ-Me)}-[dN][dY][dW][dA][Orn]G[dOrn]WTIGS-NH2)	>32 µg/mL	>32 µg/mL	>32 µg/mL	32 µg/mL	32 µg/mL	>32 µg/mL	
